# According to patent US5192807A, “Siderophores as antiparasitic agents” (priority 1987, dated 1993):
# Entries after “also recorded” stand apart in the source; their conditions may differ.
# Legend:
# [1] = system: schizonts of Plasmodium falciparum; assay: Kinetics of inhibition of 35S-methionine incorporation in schizonts; assay type: cell-based; settings: for incorporation of 35S-methionine in the proteins of schizonts: FIG. 7, aerobactin 50 μg/ml, desferioxamine 500 μg/ml
# Method: Time in minutes is plotted along the X axis and the percentage of inhibited schizonts is plotted up the Y axis.
# The schizonts of Plasmodium falciparum were concentrated from a culture, they were washed and cultured at 37° C. for one hour. Solutions of hydroxamate (-- -- 50 μg/ml aerobactin and --.smallcircle.-- 500 μg/ml of desferioxamine) were added to the schizonts. Incubation at 37° C. continued and samples were taken at various different times. The hydroxamate was removed by washing the cells, and the cells were again cultured in the presence of 250 μCi/ml ^35 S-methionine for one hour.
# The cultures were collected and the degree to which ^35 S-methionine had been incorporated was measured.
# [2] = system: red blood cells infected with Plasmodium falciparum; assay: Penetration and concentration in parasitized red blood cells; assay type: cell-based, human; settings: for penetration into parasitized red blood cells: schizont stage, aerobactin 7 μg/ml, desferioxamine 50 μg/ml
# Source text: (§1) This test studies the incorporation of […] in normal red blood cells and in red blood cells infected with Plasmodium falciparum.
# (§2) Tritium-marked aerobactin (0.2 mCi/mmol to 0.3 mCi/mmol) was purified as described above (FIG. 3) from a supernatant of strains of K5 1101 Klebsiella pneumoniae culture cultivated in an RPMI* medium containing 100 μCi/ml of tritium-marked lysine.
# Desferioxamine marked with iodine 125 (50 mCi/mmol) was obtained by the iodine-producing technique.
# (§3) The tritium-containing aerobactin (7 μg/ml) and the ^125 I containing desferioxamine (50 μg/ml) were introduced into synchronized cultures of Plasmodium falciparum (schizont stage, 20% parasitemia, hematocrit: 5%) and in a suspension of red blood cells (5% hematocrit). The cultures were incubated at 37° C. and 50 μl samples were taken at different times.
# (§4) For each sample, the following were measured:
# (§5) 1. The cpm in the culture supernatant;
# 2. The cpm in the supernatant of red blood cells lysis (the red blood cells were lysed in 40 vol. of RPMI diluted ten times and the free parasites were precipitated using a centrifuge rotating at 5,000 rpm for 5 min and were washed in RPMI); and
# 3. The cpm associated with free parasites.
# The parasites are subsequently lysed in order to prepare soluble and membrane fractions as described previously (Braun-Breton et al, Molecular Biochem. Parasitol., 1986, 20, pp. 33-43).
# Plasmodium falciparum [3] = assay: Inhibition of Plasmodium falciparum growth (35S-methionine incorporation) and effect of adding iron; assay type: cell-based; settings: for effect of FeCl3 on inhibition: 2.10^-3 M FeCl3 added immediately after the hydroxamate; for antiplasmodial activity / parasite growth inhibition: in vitro, no iron added; for effect of adding iron on the antiplasmodial action: iron added to the parasite culture
# Method: FIG. 3b: the pool of hydroxamate (10 ml to 15 ml) collected by the ion exchange chromatography was placed in a Sephadex G50 column (25×2 cm) and eluted with 100 mM of phosphate buffer (pH 7.0), at a flow rate of 30 ml/h. Fractions (2 ml to 3 ml) were collected and the hydroxamate measured (A526 nm absorbance -- --), and the following were also measured: inhibition of Plasmodium falciparum growth (--.smallcircle.--) and A220 nm absorbance (--Δ--).
# 0.2 μm of the filtered fractions were placed in a synchronized culture of Plasmodium falciparum at a final concentration of 2.5%, as described in Table I. 100 μCi/ml of methionine marked with sulfur 35 (Amersham) were added on day 1 (rings). The parasite culture was collected on day 2 (schizonts) and the incorporation of ^35 S-methionine was measured in 10% TCA.
# [4] = cited from earlier work
# normal red blood cells = assay: Concentration in healthy red blood cells; assay type: cell-based, human; settings: tritium-marked, 7 μg/ml, 37° C.
# Method: as §1, §2, §3, §4, §5
# 2. The cpm in the supernatant of red blood cells lysis (the red blood cells were lysed in 40 vol. of RPMI diluted ten times and the free parasites were precipitated using a centrifuge rotating at 5,000 rpm for 5 min and were washed in RPMI); and […]
# [5] = Williams et al 1986; cited from earlier work
# Plasmodium chaubaudi = assay: Parasite multiplication and survival of mice infected with Plasmodium chaubaudi; assay type: in vivo
# fibroblasts = assay: Toxicity on a culture of fibroblasts; assay type: cell-based; settings: purified
# Plasmodium falciparum [6] = assay: Quantitative in vitro growth inhibition of Plasmodium falciparum; assay type: cell-based; settings: 2.5 μg/ml (about 10^-5 M)
# L fibroblasts = assay: 35S-methionine incorporation in L fibroblasts; assay type: cell-based; settings: 5 hours
# P. falciparum = assay: Parasite multiplication and survival of mice infected with P. falciparum; assay type: in vivo; settings: FIG. 5
# bacteria = settings: Williams et al 1986; cited from earlier work
# mice = assay: Toxicity in mice; assay type: in vivo; settings: injection
# monkeys = settings: monkey, in vivo
smiles,measurement,setting,value
CC(=O)N(O)CCCCCNC(=O)CCC(=O)N(O)CCCCCNC(=O)CCC(=O)N(O)CCCCCN [Desferioxamine],incorporation of 35S-methionine in the proteins of schizonts,[1],no action on the incorporation of methionine
same,penetration into parasitized red blood cells,[2]; 37° C.,does not penetrate into parasitized red blood cells
same,effect of FeCl3 on inhibition,Plasmodium falciparum [3],completely reverses the inhibition
same,antiplasmodial activity / parasite growth inhibition,Plasmodium falciparum [3],inhibits parasite growth
same,effect of adding iron on the antiplasmodial action,Plasmodium falciparum [3],totally reversed
CCN(CC)CCCC(C)Nc1ccnc2cc(Cl)ccc12 (stereo not drawn) [chloroquine],toxicity (prior art),[4],do not present significant toxicity
Cl.NCCCC[C@H](N)C(=O)NO [L-Lysine hydroxamate hydrochloride],antiplasmodial activity / parasite growth inhibition,Plasmodium falciparum [3],does not exhibit antiplasmodial activity
CC(=O)N(O)CCCCC(NC(=O)CC(O)(CC(=O)NC(CCCCN(O)C(C)=O)C(=O)O)C(=O)O)C(=O)O (stereo not drawn) [aerobactin],concentration in healthy red blood cells,normal red blood cells,not concentrated in healthy red blood cells
same,affinity for ferric derivatives relative to enterochelin,[5],lower affinity for ferric derivatives than enterochelin
same,incorporation of 35S-methionine in the proteins of schizonts,[1],quickly suppresses the incorporation
same,inhibition at 50 µg/mL,"[1]; Plasmodium falciparum, 2 h, 50 μg/ml, within two hours, 37° C., read-out: schizonts with inhibited incorporation of methionine",90%
same,survival of mice,Plasmodium chaubaudi; 7.5 μg,do not survive
same,parasite multiplication and survival of mice,"Plasmodium chaubaudi; purified, intravenous, 15 μg/mouse","causes parasite multiplication to be slowed down, allowing the mice to survive"
same,toxic effect on fibroblasts in culture,fibroblasts,no toxic effect on the cells
same,inhibition of growth of Plasmodium falciparum,Plasmodium falciparum [6],100%
same,inhibition of methionine incorporation in L fibroblasts,L fibroblasts,Such activity was not found
same,location of intraparasitic radioactivity,"[2]; lysed parasites, soluble and membrane fractions",recovered in the soluble fraction of the parasites
same,penetration into parasitized red blood cells,[2]; 37° C.,penetrates quickly into parasitized red blood cells
same,detection in the cytoplasm of the red blood cells,[2]; supernatant of red blood cell lysis,not detected
same,concentration in the parasitized cell,"[2]; tritium-marked, 7 μg/ml, 37° C.",at least 200 times
same,effect of FeCl3 on inhibition,Plasmodium falciparum [3],little effect on inhibition
same,plasmocidin activity after purification,"Plasmodium falciparum [3]; Dowex-1 and Sephadex G50 purified, FIG. 3",plasmocidin activity subsists
same,effect of adding iron on the antiplasmodial action,Plasmodium falciparum [3],does not reverse the plasmocidin action
same,parasite multiplication and survival of mice (P. falciparum),P. falciparum,The same effect has been observed
same,concentration stimulating bacterial growth relative to enterochelin,bacteria,500 times smaller
same,toxicity for mice,mice,not toxic for mice; also recorded: no toxic effect has been observed
same,toxic effect in monkeys,monkeys,no toxic effect has been observed
